# According to patent US9192597B2, “Composition for inhibiting vascular aging comprising syringaresinol” (AMOREPACIFIC CORPORATION, priority 2011, dated 2015):
# What was measured:
# SIRT1 gene = SIRT1 gene expression promoting effect in aged human vascular endothelial cells (RT-PCR); type: cell-based; conditions: aged human vascular endothelial cells (14 PDL to 40 PDL), 20, 50 or 100 μM every other day, vs DMSO; FIG. 2
# Description: The SIRT1 gene expression promoting effect of syringaresinol in aged human vascular endothelial cells was evaluated as follows.
# Human vascular endothelial cells purchased from Lonza (Walkersville, Md., USA) were cultured using the endothelial cell growth medium EGM-2 SingleQuots (Lonza) in a 5% CO2 incubator until 70% confluency. […] The population doubling level (PDL) was calculated according to the following equation for each generation until the cell growth was stopped. The PDL value is higher in aged cells. PDL=(Log10 Y−Log10 X)/Log10 2
# Y: number of cells at the end of the generation
# X: number of cells at the beginning of the generation
# 14 PDL cells were treated with syringaresinol dissolved in DMSO at a concentration of 20, 50 or 100 μM every other day while inducing aging to 40 PDL cells. The cells of a negative control group were treated with DMSO of 1/1000 of the volume of the medium. The cells treated with each sample were washed 2 times with cold PBS and RNA was extracted using TRIzol reagent (Invitrogen). cDNA was synthesized from the extracted RNA (1 μg/μL) using a reverse transcription system (Promega). Subsequently, the expression pattern of the SIRT1 and GAPDH genes was measured using the synthesized cDNA and predesigned primers and probes (Applied Biosystems; SIRT1, Hs01009006_m1; GAPDH, Hs99999905_m1). […]
# PAI-1 = PAI-1 protein expression in aged vascular endothelial cells (Western blot); type: cell-based, human; conditions: 50 μM, vs DMSO and young cells, FIG. 6
# Description: (§1) In order to evaluate whether syringaresinol can restore the declined function of aged vascular cells to that of young vascular cells, the aging of vascular endothelial cells was induced by treating with 50 μM syringaresinol or DMSO as control in substantially the same manner as in Test Example 1. […] As a result, cardiovascular diseases such as arteriosclerosis can occur easily. The cells treated with syringaresinol or DMSO were washed with PBS and lysed with lysis buffer (Sigma), and the supernatant was recovered. Then, protein present in the supernatant was quantitated using Protein Dye Reagent™ (Bio-Rad). 100 μg of the obtained protein was fractionated by size by electrophoresing on 8% SDS-PAGE and transferred onto PVDF membrane (Bio-Rad) for 12 hours with 50 V. Then, the membrane was blocked for 1 hour with 5% non-fat milk and treated with anti-eNOS, anti-PAI-1 and anti-actin antibodies, as primary antibodies, and horse radish peroxidase (HRP)-conjugated anti-rabbit IgG (Amersham) as secondary antibody, and reacted using the enhanced chemiluminescence (ECL) kit (Amersham). The reacted PVDF membrane exposed to X-ray Fuji film and developed to investigate the protein expression level.
# [1] = tested on: aged vascular endothelial cells (SA-β-gal); assay: Aging marker SA-β-gal staining in aged vascular endothelial cells (Cellular Senescence Assay kit); type: cell-based, human; conditions: 50 μM, compared to cells treated only with DMSO
# Description: The aging of vascular endothelial cells was induced by treating with 50 μM syringaresinol in substantially the same manner as in Test Example 1. The aged cells were washed with PBS and stained at 37° C. for 16 hours using a fixative and a stain provided together with the Cellular Senescence Assay kit (Cell Biolabs, Inc., San Diego, Calif., USA). Next day, the cells were washed with PBS, overlaid with 20% glycerol solution and observed under a microscope. The number of the cells stained green was counted and the activity of the aging marker SA-β-gal was determined.
# eNOS = eNOS protein expression in aged vascular endothelial cells (Western blot); type: cell-based, human; conditions: 50 μM, vs DMSO and young cells, FIG. 6
# Description: as §1
# telomerase = assay: Telomerase activity in aged vascular endothelial cells (TeloTAGGG telomerase PCR ELISA Plus kit); type: cell-based, human; conditions: 50 μM, compared to cells treated only with DMSO, FIG. 5
# Description: The aging of vascular endothelial cells was induced by treating with 50 μM syringaresinol or DMSO as control in substantially the same manner as in Test Example 1. The aged cells were washed with PBS and lysed using lysis buffer (Sigma), and the obtained protein was quantitated. Telomerase activity was evaluated using the TeloTAGGG telomerase PCR ELISA Plus kit (Roche Applied Science, Indianapolis, Ind., USA).
smiles,measurement,setting,value
COc1cc(C2OCC3C(c4cc(OC)c(O)c(OC)c4)OCC23)cc(OC)c1O (stereo not drawn) [syringaresinol],SIRT1 gene expression,SIRT1 gene,increases the decreased SIRT1 expression in aged vascular endothelial cells in a concentration-dependent manner
same,PAI-1 expression,PAI-1,decreased PAI-1 expression comparable to that of young cells
same,number of green-stained (SA-β-gal) cells,[1]; FIG. 3 and 4,remarkably smaller number of green-stained cells
same,decrease of SA-β-gal activity,[1]; FIG. 4,~50%
same,eNOS expression,eNOS,increased eNOS expression comparable to that of young cells
same,increase of telomerase activity,telomerase,about 30%
